{
  "source": "ChEMBL document CHEMBL1157045",
  "about": "“Study of a cyclopamine glucuronide prodrug for the selective chemotherapy of glioblastoma” (Eur J Med Chem, 2010)",
  "key": {"[1]": {"experiment": "Cytotoxicity against human U87 cells assessed as viability in presence of beta glucuronidase", "format": "functional, cell-based, U-87MG ATCC", "details": "U-87 MG"}, "[2]": {"system": "U-87MG ATCC", "experiment": "Cytotoxicity against human U87 cells assessed as viability at 200 uM after 5 days by MTS assay", "format": "functional, cell-based"}},
  "note": "The source made the active and inactive calls. No cut-off for these calls is given here.",
  "data": [
    {"smiles": "CC1=C2C[C@H]3[C@@H](CC=C4C[C@@H](O)CC[C@@]43C)[C@@H]2CC[C@]12O[C@@H]1C[C@H](C)CN[C@H]1[C@H]2C", "note": "[CYCLOPAMINE]", "values": [
      {"measurement": "IC50", "setting": "[1]", "result": 15.5, "unit": "µM"}
    ]},
    {"smiles": "CC1=C2C[C@H]3[C@@H](CC=C4C[C@@H](O)CC[C@@]43C)[C@@H]2CC[C@]12O[C@@H]1C[C@H](C)CN(C(=O)OCc3ccc(O[C@@H]4O[C@H](C(=O)O)[C@@H](O)[C@H](O)[C@H]4O)c([N+](=O)[O-])c3)[C@H]1[C@H]2C", "values": [
      {"measurement": "IC50", "setting": "[1]", "result": 21, "unit": "µM"},
      {"measurement": "Activity", "setting": "[2]", "result": "inactive"}
    ]}
  ]
}
